We go through five compounds from PubChem BioAssay AID1918947 (Molecular Pharmacology Branch, DTP, NCI, 2023).

For this experiment, the system named is A498 complex spheroid viability. In words: Anticancer human tumor A498 cell line growth inhibition.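 As to all read-outs here: spheroids exposed to agents for seven days before readout.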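 As to viability, T/C: 100% = DMSO vehicle-treated spheroids.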 As to conditions: for viability, T/C: stronger effect = lower value. A digest of the protocol:
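Multicellular complex spheroids of tumor cells with human endothelial cells (HUVEC) and mesenchymal stem cells; the LSD1 inhibitor iadademstat was combined with standard-of-care or investigational agents. Top concentration at or near clinical Cmax, half-log dilutions; final DMSO ≤0.25%.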

Setting [1] is: curve of first compound, second compound 0.1 µM.
Where [2] appears, read: curve of first compound, second compound 0.316 µM.
[3] abbreviates: curve of first compound, second compound 1 µM.
[4] abbreviates: curve of first compound, second compound 3.16 µM.
[5] abbreviates: curve of first compound, second compound 10 µM.
[6] abbreviates: second compound 0.1 µM, first compound 0.00316 µM.
Where [7] appears, read: second compound 0.1 µM, first compound 0.01 µM.
Where [8] appears, read: second compound 0.1 µM, first compound 0.0316 µM.
The mark [9] stands for this setting: second compound 0.1 µM, first compound 0.1 µM.
Setting [10] is: second compound 0.316 µM, first compound 0.00316 µM.
Setting [11] is: second compound 0.316 µM, first compound 0.01 µM.
Where [12] appears, read: second compound 0.316 µM, first compound 0.0316 µM.
The mark [13] stands for this setting: second compound 0.316 µM, first compound 0.1 µM.
[14] abbreviates: second compound 1 µM, first compound 0.00316 µM.
Setting [15] is: second compound 1 µM, first compound 0.01 µM.
Setting [16] is: second compound 1 µM, first compound 0.0316 µM.
The mark [17] stands for this setting: second compound 1 µM, first compound 0.1 µM.
Where [18] appears, read: second compound 3.16 µM, first compound 0.00316 µM.
[19] abbreviates: second compound 3.16 µM, first compound 0.01 µM.
The mark [20] stands for this setting: second compound 3.16 µM, first compound 0.0316 µM.
[21] abbreviates: second compound 3.16 µM, first compound 0.1 µM.
[22] abbreviates: second compound 10 µM, first compound 0.00316 µM.
Setting [23] is: second compound 10 µM, first compound 0.01 µM.
Where [24] appears, read: second compound 10 µM, first compound 0.0316 µM.
[25] abbreviates: second compound 10 µM, first compound 0.1 µM.

Several values for one entry are separate records, joined by “and”; a condition that tells them apart may be missing. Equal entries are not always repeated.

As for `CC1COCCN1c1cc(-c2ccnn2C)c2ccnc(-c3ccn[nH]3)c2n1` (centres undefined) + NC1CC1c1ccc(-c2cccc(O)c2)cc1, the IC50 (as a rule, the concentration needed to halve the response being measured) under setting [1] stood at 30.9 nM; the IC50 under setting [2] was determined as 29.8 nM; the IC50 under setting [3] worked out at 36.8 nM; the IC50 under setting [4] was determined as 28.4 nM; the IC50 under setting [5] was 31.5 nM. Further, the viability, T/C – broadly, the result in the treated group divided by that in the control group, in per cent – runs as follows: under setting [6], 104%; under setting [7], 88.1%; under setting [8], 48.2%; under setting [9], 23.6%; (second compound 0.1 µM, first compound 0.316 µM) 16.9%; (second compound 0.1 µM, first compound 1 µM) 11.8%. The viability, T/C is, setting by setting: under setting [10], 108%; under setting [11], 94%; under setting [12], 45.8%; under setting [13], 25.3%; (second compound 0.316 µM, first compound 0.316 µM) 18.1%; (second compound 0.316 µM, first compound 1 µM) 13%. Besides, the viability, T/C was 105% under setting [14]; 87% under setting [15]; 55.5% under setting [16]; 22.8% under setting [17]; 17.7% (second compound 1 µM, first compound 0.316 µM); 12.3% (second compound 1 µM, first compound 1 µM). Further, the viability, T/C by setting is: under setting [18], 109%; under setting [19], 85.5%; under setting [20], 45.8%; under setting [21], 23.3%; (second compound 3.16 µM, first compound 0.316 µM) 15.6%; (second compound 3.16 µM, first compound 1 µM) 12.9%. The viability, T/C is 91.9% under setting [22]; 80.3% under setting [23]; 49% under setting [24]; 24.8% under setting [25]; 16.3% (second compound 10 µM, first compound 0.316 µM); 11.4% (second compound 10 µM, first compound 1 µM).

Consider `CC[C@@]1(O)C(=O)OCc2c1cc1n(c2=O)Cc2cc3c(CN(C)C)c(O)ccc3nc2-1`, for which the viability, T/C (compound 0.000316 µM) was 106% and 95.2%; the viability, T/C (compound 0.001 µM) is 103% and 95.8%; the viability, T/C (compound 0.00316 µM) is 86.4% and 82.6%; the viability, T/C (compound 0.01 µM) is 84.5% and 79.2%; the viability, T/C (compound 0.0316 µM) is 62.7% and 56.4%; the viability, T/C (compound 0.1 µM) is 33.7% and 32.4%. The IC50 (curve of compound) is 52.5 nM and 44.6 nM.

Regarding `O=C(C=Cc1cccc(S(=O)(=O)Nc2ccccc2)c1)NO` + NC1CC1c1ccc(-c2cccc(O)c2)cc1, the IC50 under setting [1] worked out at 352 nM; the IC50 under setting [2] was 398 nM; the IC50 under setting [3] amounted to 325 nM; the IC50 under setting [4] turned out to be 364 nM; the IC50 under setting [5] was 343 nM. Further, the viability, T/C is 105% (second compound 0.1 µM, first compound 0.00949 µM); 90.2% (second compound 0.1 µM, first compound 0.03 µM); 78.6% (second compound 0.1 µM, first compound 0.0949 µM); 49% (second compound 0.1 µM, first compound 0.3 µM); 32.4% (second compound 0.1 µM, first compound 0.949 µM); 7.4% (second compound 0.1 µM, first compound 3 µM). Besides, the viability, T/C by setting is: (second compound 0.316 µM, first compound 0.00949 µM) 105%; (second compound 0.316 µM, first compound 0.03 µM) 93.2%; (second compound 0.316 µM, first compound 0.0949 µM) 76.9%; (second compound 0.316 µM, first compound 0.3 µM) 53.3%; (second compound 0.316 µM, first compound 0.949 µM) 34.3%; (second compound 0.316 µM, first compound 3 µM) 7.34%. Moreover, the viability, T/C is, setting by setting: (second compound 1 µM, first compound 0.00949 µM) 98.4%; (second compound 1 µM, first compound 0.03 µM) 88.3%; (second compound 1 µM, first compound 0.0949 µM) 76.8%; (second compound 1 µM, first compound 0.3 µM) 49.3%; (second compound 1 µM, first compound 0.949 µM) 28.4%; (second compound 1 µM, first compound 3 µM) 6.7%. Besides, the viability, T/C (second compound 3.16 µM, first compound 0.00949 µM) was 93.9%; the viability, T/C (second compound 3.16 µM, first compound 0.03 µM) is 84.4%; the viability, T/C (second compound 3.16 µM, first compound 0.0949 µM) is 66.6%; the viability, T/C (second compound 3.16 µM, first compound 0.3 µM) was 52.2%; the viability, T/C (second compound 3.16 µM, first compound 0.949 µM) is 37.6%; the viability, T/C (second compound 3.16 µM, first compound 3 µM) is 5.52%. Moreover, the viability, T/C reads like this: (second compound 10 µM, first compound 0.00949 µM) 93.2%; (second compound 10 µM, first compound 0.03 µM) 81.3%; (second compound 10 µM, first compound 0.0949 µM) 66.7%; (second compound 10 µM, first compound 0.3 µM) 55.5%; (second compound 10 µM, first compound 0.949 µM) 30.7%; (second compound 10 µM, first compound 3 µM) 5.21%.

As to `CC(C)CC(NC(=O)CNC(=O)c1cc(Cl)ccc1Cl)B1OC(=O)CC(CC(=O)O)(C(=O)O)O1` (centres undefined) + NC1CC1c1ccc(-c2cccc(O)c2)cc1, the concentration for half-maximal inhibition (IC50) under setting [1] was found to be 4.26 nM; the IC50 under setting [2] amounted to 4.8 nM; the IC50 under setting [3] came out at 4.44 nM; the IC50 under setting [4] came out at 4.29 nM; the IC50 under setting [5] turned out to be 3.46 nM. For the same compound, the viability, T/C was 93.7% (second compound 0.1 µM, first compound 0.000316 µM); 96.5% (second compound 0.1 µM, first compound 0.001 µM); 60% under setting [6]; 18.1% under setting [7]; 5.77% under setting [8]; 2.14% under setting [9]. In addition, the viability, T/C by setting is: (second compound 0.316 µM, first compound 0.000316 µM) 106%; (second compound 0.316 µM, first compound 0.001 µM) 114%; under setting [10], 68.1%; under setting [11], 17.3%; under setting [12], 5.27%; under setting [13], 1.97%. The viability, T/C by setting is: (second compound 1 µM, first compound 0.000316 µM) 96.6%; (second compound 1 µM, first compound 0.001 µM) 102%; under setting [14], 62.9%; under setting [15], 16.8%; under setting [16], 3.81%; under setting [17], 1.83%. In addition, the viability, T/C is 91.8% (second compound 3.16 µM, first compound 0.000316 µM); 94.4% (second compound 3.16 µM, first compound 0.001 µM); 61% under setting [18]; 16.9% under setting [19]; 3.71% under setting [20]; 1.96% under setting [21]. The viability, T/C by setting is: (second compound 10 µM, first compound 0.000316 µM) 98.4%; (second compound 10 µM, first compound 0.001 µM) 92.1%; under setting [22], 51.7%; under setting [23], 15.6%; under setting [24], 2.82%; under setting [25], 1.07%.

Consider `CC(C)CC(NC(=O)CNC(=O)c1cc(Cl)ccc1Cl)B1OC(=O)CC(CC(=O)O)(C(=O)O)O1` (centres undefined), for which the viability, T/C by setting is: (compound 0.000316 µM) 102% and 107%; (compound 0.001 µM) 106% and 107%; (compound 0.00316 µM) 69.4% and 75.4%; (compound 0.01 µM) 24.7% and 21.5%; (compound 0.0316 µM) 5.96% and 6.51%; (compound 0.1 µM) 2.46% and 1.92%. Moreover, where the note is “curve of compound”, the IC50 is 5.29 nM and 5.46 nM.
